Data from US20070208166A1, “Tao Kinase Modulators And Method Of Use” (Exelixis, Inc., priority 2003, published 2007).

Key:
Type in all cases: biochemical
[1] = molecular target: T1, KIAA 1361 (baculovirus expressed human KIAA 1361 kinase domain 2-322) (Homo sapiens, UniProt Q7L7X3); test: KIAA 1361 Luciferase-Coupled Chemiluminescent Kinase assay (LCCA); settings: 2 μM ATP, 10 μM MBP, 12 nM KIAA 1361, 2 hours; read-out: KIAA1361 inhibition IC50
T1 construct: human KIAA 1361 kinase domain 2-322; made in house
T1 sequence (Q7L7X3 2-322): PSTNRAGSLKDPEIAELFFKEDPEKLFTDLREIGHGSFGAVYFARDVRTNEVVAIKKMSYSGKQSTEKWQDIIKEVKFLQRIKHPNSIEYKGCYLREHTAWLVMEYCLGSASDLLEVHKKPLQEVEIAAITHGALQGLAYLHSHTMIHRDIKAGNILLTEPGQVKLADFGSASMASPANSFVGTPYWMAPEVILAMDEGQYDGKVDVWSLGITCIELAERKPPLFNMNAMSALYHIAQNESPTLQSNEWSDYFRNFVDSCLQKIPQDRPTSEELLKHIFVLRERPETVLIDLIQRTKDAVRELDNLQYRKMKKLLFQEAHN
Method in brief: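 KIAA 1361 kinase domain 2-322 (baculovirus, 12 nM) with 2 μM ATP and 10 μM MBP in Tris pH 7.5, MgCl2, MnCl2; 2 h, ambient. Remaining ATP read by luciferase chemiluminescence; 10 concentrations, IC50 by four-parameter fit.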

JIK = molecular target: T2, JIK (Homo sapiens, UniProt Q9H2K8); test: JIK Luciferase-Coupled Chemiluminescent Kinase assay (LCCA); settings: 2 μM ATP, 10 μM MBP, 6 nM JIK, 2 hours; read-out: JIK inhibition IC50
T2 construct: 6 nM JIK (baculovirus expressed human KIAA 1361 kinase domain2-318); made in house
T2 sequence (Q9H2K8 2-318): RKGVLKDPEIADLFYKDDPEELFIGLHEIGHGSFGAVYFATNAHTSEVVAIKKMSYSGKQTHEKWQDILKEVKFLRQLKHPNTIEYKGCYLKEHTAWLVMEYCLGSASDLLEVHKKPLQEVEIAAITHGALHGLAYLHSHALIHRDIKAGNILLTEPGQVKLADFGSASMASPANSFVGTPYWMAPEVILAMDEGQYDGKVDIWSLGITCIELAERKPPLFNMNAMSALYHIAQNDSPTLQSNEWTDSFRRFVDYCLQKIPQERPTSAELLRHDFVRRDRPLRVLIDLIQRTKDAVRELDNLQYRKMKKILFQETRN
Method in brief: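 Baculovirus-expressed human KIAA 1361 kinase domain 2-318 at 6 nM, with 10 μM MBP and 2 μM ATP in Tris pH 7.5 with Mg/Mn, ran 2 h at ambient temperature. Remaining ATP was read by luciferase chemiluminescence. IC50 comes from a 10-concentration four-parameter fit.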

TAO = molecular target: T3, TAO (Homo sapiens, UniProt Q9UL54); test: TAO Luciferase-Coupled Chemiluminescent Kinase assay (LCCA); settings: 2 μM ATP, 10 μM MBP, 12 nM TAO, 2 hours; read-out: TAO inhibition IC50
T3 sequence (Q9UL54 1-1235): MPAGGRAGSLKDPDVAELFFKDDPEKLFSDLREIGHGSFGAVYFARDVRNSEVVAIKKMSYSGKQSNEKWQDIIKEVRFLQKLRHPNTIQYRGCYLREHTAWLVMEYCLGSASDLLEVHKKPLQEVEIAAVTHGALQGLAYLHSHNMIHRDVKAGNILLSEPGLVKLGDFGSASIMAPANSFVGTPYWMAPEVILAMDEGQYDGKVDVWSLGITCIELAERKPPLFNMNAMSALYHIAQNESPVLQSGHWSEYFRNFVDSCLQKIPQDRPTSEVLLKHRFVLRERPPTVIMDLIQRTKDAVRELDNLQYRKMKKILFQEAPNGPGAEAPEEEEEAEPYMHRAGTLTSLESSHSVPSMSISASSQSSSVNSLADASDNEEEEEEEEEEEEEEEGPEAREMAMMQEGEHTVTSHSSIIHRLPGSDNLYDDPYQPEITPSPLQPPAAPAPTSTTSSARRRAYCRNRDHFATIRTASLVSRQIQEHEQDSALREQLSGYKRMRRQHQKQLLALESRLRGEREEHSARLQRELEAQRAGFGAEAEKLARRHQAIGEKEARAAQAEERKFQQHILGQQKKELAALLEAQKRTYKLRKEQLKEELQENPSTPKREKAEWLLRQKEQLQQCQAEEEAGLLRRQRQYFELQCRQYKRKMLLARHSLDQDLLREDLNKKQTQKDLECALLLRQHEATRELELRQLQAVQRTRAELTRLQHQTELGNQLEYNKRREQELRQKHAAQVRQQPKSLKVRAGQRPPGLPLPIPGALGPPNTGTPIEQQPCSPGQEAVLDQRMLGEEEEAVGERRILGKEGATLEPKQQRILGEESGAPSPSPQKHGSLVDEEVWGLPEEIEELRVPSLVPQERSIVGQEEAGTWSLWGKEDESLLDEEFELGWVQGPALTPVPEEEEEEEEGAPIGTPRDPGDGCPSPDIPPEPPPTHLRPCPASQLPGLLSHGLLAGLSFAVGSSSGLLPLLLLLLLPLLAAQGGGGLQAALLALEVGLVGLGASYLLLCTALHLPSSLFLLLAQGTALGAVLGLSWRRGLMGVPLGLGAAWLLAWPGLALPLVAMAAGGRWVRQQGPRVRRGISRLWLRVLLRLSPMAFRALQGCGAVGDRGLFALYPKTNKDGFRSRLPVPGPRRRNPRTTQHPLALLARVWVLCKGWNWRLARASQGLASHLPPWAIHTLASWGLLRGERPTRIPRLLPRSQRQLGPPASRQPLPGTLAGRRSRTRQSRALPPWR

Molecule | IC50 [1] | IC50 (JIK) | IC50 (TAO)
COc1ccc2nc(NC(=O)CNC(=O)CC(NC(C)=O)c3ccccc3)sc2c1 (stereo not drawn) [Entry 84, 3-(acetylamino)-N-(2-{[6-(methyloxy)-1,3-benzothiazol-2-yl]amino}-2-oxoethyl)-3-phenylpropanamide] | > 5 µM | > 5 µM | > 5 µM
COc1ccc2nc(NC(=O)CNC(=O)CCNC(=O)c3ccccc3)sc2c1 [Entry 85, N-(phenylcarbonyl)-beta-alanyl-N-[6-(methyloxy)-1,3-benzothiazol-2-yl]glycinamide] | > 5 µM | > 5 µM | > 5 µM
O=C(CNC(=O)c1ccc2ncccc2c1)Nc1cccc2c1CCCC2 [Entry 86, N-[2-oxo-2-(5,6,7,8-tetrahydronaphthalen-1-ylamino)ethyl]quinoline-6-carboxamide] | > 5 µM | > 5 µM | > 5 µM
O=C(CNC(=O)c1cnc2ccccc2c1)Nc1cccc2c1CCCC2 [Entry 87, N-[2-oxo-2-(5,6,7,8-tetrahydronaphthalen-1-ylamino)ethyl]quinoline-3-carboxamide] | > 5 µM | > 5 µM | > 5 µM
O=C(CCN1CCCCC1)NCC(=O)NC1CCCc2ccccc21 (stereo not drawn) [Entry 88, N-[2-oxo-2-(1,2,3,4-tetrahydronaphthalen-1-ylamino)ethyl]-3-piperidin-1-ylpropanamide] | > 5 µM | > 5 µM | > 5 µM
O=C(CNC(=O)c1ccc(N2CCCCC2)cc1)Nc1cccc2c1CCCC2 [Entry 89, N-[2-oxo-2-(5,6,7,8-tetrahydronaphthalen-1-ylamino)ethyl]-4-piperidin-1-ylbenzamide] | > 5 µM | > 5 µM | > 5 µM
O=C(CC(NC(=O)c1ccccc1)c1ccccc1)NCC(=O)Nc1nc2ccccc2s1 (stereo not drawn) [Entry 90, N-(3-{[2-(1,3-benzothiazol-2-ylamino)-2-oxoethyl]amino}-3-oxo-1-phenylpropyl)benzamide] | 0.05 to 0.5 µM | < 0.05 µM | 0.05 to 0.5 µM
O=C(CNC(=O)N1CCN(c2ccccc2)CC1)NC1CCCc2ccccc21 (stereo not drawn) [Entry 91, N-[2-oxo-2-(1,2,3,4-tetrahydronaphthalen-1-ylamino)ethyl]-4-phenylpiperazine 1-carboxamide] | > 5 µM | > 5 µM | > 5 µM
O=C(CC(NC(=O)c1ccccc1)c1ccccc1)NCC(=O)Nc1nccs1 (stereo not drawn) [Entry 92, N-(3-oxo-3-{[2-oxo-2-(1,3-thiazol-2-ylamino)ethyl]amino}-1-phenylpropyl)benzamide] | 0.5 to 5 µM | 0.05 to 0.5 µM | 0.5 to 5 µM
Cc1csc(NC(=O)CNC(=O)CC(NC(=O)c2ccccc2)c2ccccc2)n1 (stereo not drawn) [Entry 93, N-[3-({2-[(4-methyl-1,3-thiazol-2-yl)amino]-2-oxoethyl}amino)-3-oxo-1-phenylpropyl]benzamide] | > 5 µM | > 5 µM | > 5 µM
CCc1ccc(-c2ccc(C(=O)NCC(=O)NC3CN(C(=O)OC(C)(C)C)Cc4ccccc43)cc2)cc1 (stereo not drawn) [Entry 95, 1,1-dimethylethyl 4-({N-[(4′-ethylbiphenyl-4-yl)carbonyl]glycyl}amino)-3,4-dihydroisoquinoline-2(1H)-carboxylate] | > 5 µM | 0.5 to 5 µM | > 5 µM
CCc1ccc(-c2ccc(C(=O)NCC(=O)NC3CNCc4ccccc43)cc2)cc1 (stereo not drawn) [Entry 96, 4′-ethyl-N-[2-oxo-2-(1,2,3,4-tetrahydroisoquinolin-4-ylamino)ethyl]biphenyl-4-carboxamide] | 0.5 to 5 µM | 0.5 to 5 µM | 0.5 to 5 µM
O=C(CC(NC(=O)c1ccccc1)c1ccccc1)Nc1nc2ccc(O)cc2s1 (stereo not drawn) [Entry 97, N-{3-[(6-hydroxy-1,3-benzothiazol-2-yl)amino]-3-oxo-1-phenylpropyl)benzamide] | > 5 µM | > 5 µM | > 5 µM
O=C(CC(NC(=O)c1ccccc1)c1ccccc1)NCC(=O)Nc1nc2ccc(O)cc2s1 (stereo not drawn) [Entry 98, N-[3-({2-[(6-hydroxy-1,3-benzothiazol-2-yl)amino]-2-oxoethyl}amino)-3-oxo-1-phenylpropyl]benzamide] | 0.05 to 0.5 µM | < 0.05 µM | 0.05 to 0.5 µM
N-˜2˜-({[4-(1,1-dimethylethyl)phenyl]oxy}acetyl)-N-(1,2,3,4-tetrahydronaphthalen-1-yl)glycinamide [Entry 33] | 0.5 to 5 µM | 0.5 to 5 µM | > 5 µM
